Measurements as given in US20100160445A1, “Synergistic Mixtures of OPP and DGH” (priority 2002, published 2010).
Counter-ions that a name gives are not always drawn. Like-named read-outs stand apart in the source and are kept apart here.

Tested on: mixed inoculum of bacteria
Assay: MIC and synergy (K) in nutrient broth, microtiter plates
Type: cell-based
Procedure: Stock solutions of each product were prepared in sterile distilled water. Synergism was measured by the method first described by F. C. Kull, P. C. Eisman, H. D. Sylwestrowicz and R. L. Mayer in Applied Microbiology, 9, 538-41 ([…]). This manner of determining synergism has been widely used and is industrially acceptable. It is believed that the specified method is sufficient in explaining the process. However for a further description, reference can be made to U.S. Pat. No. 3,231,509 and its file history, where this type of data was considered acceptable.
• 1. Incubator capable of maintaining a variable temperature range (25-45 C) • 2. Samples of each biocide or test compound to be examined • 3. Microtiter plates—96 well with lid, sterile. • 4. 8-12 channel micropipetting device capable of pipetting 0-250 ul volumes • 5. Micropipette tips capable of holding up to 250 ul volumes • 6. Sterile microbiological culture broth. Trypticase Soy Broth (TSB) or Nutrient Broth (NB) is recommended for bacteria and Sabouraud Maltose Broth (SMB) or Sabouraud Dextrose Broth (SDB) is recommended for yeasts and molds. In the case of this particular study the microbiological culture medium was Nutrient Broth at pH 7.0, 8.0 and 9.0. • 7. Pure cultures of microorganisms of choice grown on appropriate agar medium • 8. Sterile distilled water • 9. 100 mL volumetric flasks (one for each biocide to be tested) • 10. Sterile 10 mL tubes of Phosphate buffer (Butterfield's buffer pH 7.2+/−0.2). Contains purified water, monobasic potassium phosphate and sodium hydroxide for pH adjustment. • 11. Sterile cotton swabs • 12. 0.5 MacFarland Turbidity Standard
The day before testing, perform a streak plate of each organism to be tested on an appropriate agar medium (Trypticase Soy Agar). Organisms tested in this study were: Wild strain bacteria isolated from previously contaminated industrial systems and which were identified as: Pseudomonas sp., Escherchia coli , Enterobacter sp., Alcaligenes sp. and Alcaligenes faecalis. On the day of the test, use a sterile cotton swab to harvest some of the growth. Place swab into a tube containing 10 mL sterile phosphate buffer. Compare and adjust the turbidity of the organisms in the tube to 1×10^8 cfu/mL using a 0.5 MacFarland Turbidity Standard. Dilute the 10 mL tube into 90 mL of sterile 2× nutrient broth at pH 7.0, 8.0 and 9.0.
1. Design the layout of the microtiter plates based on the number of organisms to test and the number of biocides and desired concentrations to test. A separate microtiter plate is required for testing each biocide alone, in addition to the combination microtiter plate. 2. Prepare a working stock solution of each biocide to be tested. For the combination microtiter plate, the working stock solution of Biocide A will be 8× the concentration desired in the first well of the combination microtiter plate. The working stock solution of Biocide B will be 4× the concentration desired in the first well of the combination microtiter plate. For the alone microtiter plates, the working stock solutions of Biocide A and Biocide B will both be 4× the concentration desired in the first well of the single biocide microtiter plates.
Dodecylguanidine hydrochloride: (For combination plates) A solution of this product which is 35% active, was made as follows: […]=8000 ppm active=8000/0.35=22,857 ppm, 2.28 g into 100 mL sterile diH2O. Levels to test are: 1000 ppm, 500 ppm, 250 ppm, 125 ppm, 62.5 ppm, 31.2 ppm, 15.6 ppm, 7.8 ppm, 3.9 ppm, 1.95 ppm
Ortho-PhenylPhenol: (For combination plates) Make a solution of this product which is 99% active, 4×125=500 ppm active=500/0.99=505 ppm, 0.05 g into 100 mL MeOH and sterile diH2O. Level to test is 125 ppm.
3. Place 50 ul of sterile distilled water in all of the rows in columns 1 through 10, and 100 ul of sterile distilled water in all of the rows in columns 11 and 12 of the 96 well combination microtiter plate. […]

CCCCCCCCCCCCNC(=N)N [DGH, Dodecylguanidine Hydrochloride]
MIC (pH 7, read-out: MIC, biocide alone): 62.5 µg/mL | Synergy Index (pH 7.0, 62.5 ppm DGH alone (100:0)): 1.00 | MIC (pH 8, read-out: MIC, biocide alone): 15.6 µg/mL | Synergy Index (pH 8.0, 15.6 ppm DGH alone (100:0)): 1.00 | MIC (pH 9, read-out: MIC, biocide alone): 15.6 µg/mL | Synergy Index (pH 9.0, 15.6 ppm DGH alone (100:0)): 1.00
